The results in this text go back to US7056947B2, “Aza-peptide epoxides” (Georgia Tech Research Corp., priority 2002, dated 2006).

What all share (assay type): biochemical
One assay has as its target T1, papain (Carica papaya, UniProt P00784).
T1 sequence (P00784 134-345): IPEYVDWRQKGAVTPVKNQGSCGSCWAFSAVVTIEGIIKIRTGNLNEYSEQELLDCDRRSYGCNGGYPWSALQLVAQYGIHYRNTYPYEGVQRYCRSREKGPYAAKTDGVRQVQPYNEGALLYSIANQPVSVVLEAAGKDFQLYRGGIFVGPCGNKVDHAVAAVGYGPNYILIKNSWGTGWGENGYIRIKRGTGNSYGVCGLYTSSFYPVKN
Nature of the assay: Inhibition of papain, incubation method. The following applies: second-order rate constant, NI = no inhibition; for kinact/KI: pH 7.5, read-out: kobs/[I] papain. On the procedure: The release of 7-amino-4-methylcoumarin was monitored (λex=360 nm, λem=465 nm) using a Tecan Spectra Fluor microplate reader. Pseudo first-order inactivation rate constants were obtained from plots of In vt/vo versus time.
The incubation method was also used for papain. The inhibition incubation buffer for papain was 50 mM Hepes buffer at pH 7.5, containing 2.5 mM DTT and 2.5 mM EDTA. The assay used the substrate Z-Phe-Arg-pNA (53.7 μM) in the same buffer. The approximate concentration of papain added to the incubation buffer was 0.29 mg/mL. The release of p-nitroanilide was monitored at 405 nm with a Molecular Devices Thermomax microplate reader.

Another assay has as its target T2, caspase-1 (Homo sapiens, UniProt P29466, D381E).
T2 construct: His tag (N); made in house; host or cells: E. coli
T2 sequence (P29466 120-297 limits assumed): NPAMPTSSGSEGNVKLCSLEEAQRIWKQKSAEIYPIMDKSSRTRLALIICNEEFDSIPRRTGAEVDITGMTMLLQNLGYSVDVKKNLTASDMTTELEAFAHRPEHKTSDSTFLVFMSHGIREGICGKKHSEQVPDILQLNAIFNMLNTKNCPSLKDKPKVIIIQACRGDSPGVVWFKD
T2 sequence (P29466 317-404 D381E limits assumed): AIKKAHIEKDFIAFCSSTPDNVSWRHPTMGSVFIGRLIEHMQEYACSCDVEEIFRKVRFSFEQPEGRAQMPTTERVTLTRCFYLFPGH
Nature of the assay: Caspase-1 progress curve assay. The following applies: D381E variant, substrate Ac-YVAD-AMC, 30° C. From the text: Caspase-1. The preparation of the autolytically stable caspase-1 variant used in these studies has been described previously. Briefly, the variant contains a mutation (D381E) which renders it resistant to autolytic inactivation, but has no detectable affect on enzyme activity as compared to the naturally occurring enzyme. The enzyme variant was expressed in E. coli, purified first by immobilized metal chromatography via the N-terminal N-His tag, treated with excess oxidized glutathione to stabilize the reactive thiolate, and then re-purified by size-exclusion chromatography.
Inhibition data was measured using the progress curve assay method. Serial dilutions of each compound were prepared using an initial 8-fold dilution of a DMSO stock into HGE (100 mM HEPES,20% glycerol v/v, 0.5 mM EDTA), followed by seven serial two-fold dilutions into HGE and 12.5% DMSO, thus maintaining constant DMSO through the dilution series. Ten μL of diluted stocks or of vehicle (HGE and 12.5% DMSO) were placed in triplicate onto a 96-well microtiter plate, allowing several compounds to be tested on each plate. The plate was covered to minimize evaporation, and the plate was pre-warmed to 30° C. for 20 minutes. Enzyme was diluted into 10.0 mL of assay buffer (HGE, 5 mM DTT, plus 15 μM Ac-YVAD-AMC, 2 nM approximate final enzyme concentration), and this activated reaction mixture was added to the plate at 90 μL/well. Progress of substrate hydrolysis was monitored for 900 s in a LabSystems (Needham, Mass.) Fluoroskan Ascent fluorescent plate-reader using 385 and 460 nm excitation and emission filters, respectively, and a photomultiplier gain setting of 10. Triplicate curves were averaged and fit by nonlinear regression to the equation for irreversible inactivation shown below.
[formula] where F0 was routinely fixed to zero, since fluorescence values were always adjusted to an origin of 0. The second order rate constant kon (M^−1s^−1) was obtained from the slopes by linear regression, and errors represent the standard deviation of the regression slope.

The target of a further assay is T3, caspase-3 (Homo sapiens, UniProt P42574).
T3 construct: made in house; host or cells: E. coli
T3 sequence (P42574 29-175 limits assumed): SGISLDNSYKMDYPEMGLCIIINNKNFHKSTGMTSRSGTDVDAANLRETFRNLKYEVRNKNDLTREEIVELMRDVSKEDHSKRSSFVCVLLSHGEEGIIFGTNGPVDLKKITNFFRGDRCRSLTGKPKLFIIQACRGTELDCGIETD
T3 sequence (P42574 176-277 limits assumed): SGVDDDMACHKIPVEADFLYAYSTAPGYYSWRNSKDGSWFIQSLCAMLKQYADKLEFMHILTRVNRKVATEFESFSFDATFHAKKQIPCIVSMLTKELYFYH
Briefly: Caspase-3 progress curve assay. The note with it: substrate Z-DEVD-AFC; NI = no inhibition. As to the method:
Caspase-3, -6, and -8. Caspase-3, -6 and -8 were expressed in E. coli and purified according to methods previously described by Stennicke and Salvesen. Assays using the fluorogenic substrate Z-DEVD-AFC (λex=400 nm, λem=505 nm) were carried out on a Molecular Devices fMax fluorescence microplate reader. Inhibition rates and equilibria were determined by the progress curve method. The standard 100 μL reaction was started by adding enzyme to a mixture of substrate (final concentration of Z-DEVD-AFC 100 μM) and various amounts of inhibitor in buffer (50 mM Hepes, 100 mM NaCl, 0.1% (w/v) CHAPS, sucrose 10% (w/v), and 10 mM DTT, at pH 7.4). The caspases were pre-activated for 10 min at 37° C. in the presence of 10 mM DTT.

Take `CCC(NC(=O)OC(C)(C)C)C(=O)NN(CCc1ccccc1)C(=O)[C@@H]1O[C@H]1CCc1ccccc1` (relative stereo) [Boc-Abu-AHph-trans-EP-CH2CH2Ph, trans-3-(N^2-(N-tert-Butoxycarbonyl-α-aminobutanoyl)-N^1-phenylethylhydrazinocarbonyl)-2-(2-phenylethyl)oxirane]: the “kobs/[I] papain” value on papain was found to be 0.2 M⁻¹ s⁻¹.
For the molecule `O=C(OCc1ccccc1)N(NCc1ccccc1)C(=O)[C@@H]1O[C@H]1CCc1ccccc1` (relative stereo) [Cbz-APhe-trans-EP-CH2CH2Ph, trans-3-(N^2-Benzyl-N^1-benzyloxycarbonylhydrazinocarbonyl)-2-(2-phenylethyl)oxirane], the kinact/KI on papain turned out to be 0.92 M⁻¹ s⁻¹.
Regarding `CC(C)CN(NC(=O)[C@H](Cc1ccccc1)NC(=O)OCc1ccccc1)C(=O)[C@@H]1O[C@H]1CCc1ccccc1` (relative stereo) [Cbz-Phe-ALeu-trans-EP-CH2CH2Ph], the “kobs/[I] papain” value at papain amounted to 0.7 M⁻¹ s⁻¹.
Turning to `O=C(N[C@@H](Cc1ccccc1)C(=O)NN(Cc1ccccc1)C(=O)[C@@H]1O[C@H]1CCc1ccccc1)OCc1ccccc1` (relative stereo) [Cbz-Phe-APhe-trans-EP-CH2CH2Ph, trans-3-(N^2-(N-3-Benzyloxyphenylalanyl)-N^1-benzylhydrazinocarbonyl)-2-(2-phenylethyl)oxirane], the “kobs/[I] papain” value on papain was 0.5 M⁻¹ s⁻¹.
Turning to `CC[C@H](C)[C@H](NC(=O)OCc1ccccc1)C(=O)N[C@@H](CCC(=O)O)C(=O)N[C@H](C(=O)NN(CC(=O)O)C(=O)[C@@H]1O[C@H]1C(=O)OCc1ccccc1)[C@@H](C)O` [27d (R,R), (2R,3R)-3-(N^2-(N-Benzyloxycarbonylisoleucylglutamylthreonyl)-N^1-carboxymethylhydrazinocarbonyl)oxirane-2-carboxylic Acid Benzyl Ester], the “k2 caspase-1” value at caspase-1 was 13000 ± 980 M⁻¹ s⁻¹. In addition, the “k2 caspase-3” value on caspase-3 is 3115 ± 125 M⁻¹ s⁻¹.
Take `CC[C@H](C)[C@H](NC(=O)OCc1ccccc1)C(=O)N[C@@H](CCC(=O)O)C(=O)N[C@H](C(=O)NN(CC(=O)O)C(=O)[C@H]1O[C@@H]1C(=O)OCc1ccccc1)[C@@H](C)O` [27d (S,S), (2S,3S)-3-(N^1-(N-Benzyloxycarbonylisoleucylglutamylthreonyl)-N^1-carboxymethylhydrazinocarbonyl)oxirane-2-carboxylic Acid Benzyl Ester]: the “k2 caspase-1” value on caspase-1 is 45788 M⁻¹ s⁻¹. In addition, the “k2 caspase-3” value on caspase-3 amounted to 9545 ± 960 M⁻¹ s⁻¹.
On the same counts, the results for `CC[C@H](C)[C@H](NC(=O)OCc1ccccc1)C(=O)N[C@@H](CCC(=O)O)C(=O)N[C@H](C(=O)NN(CC(=O)O)C(=O)[C@@H]1O[C@H]1C(=O)NCc1ccccc1)[C@@H](C)O` [27g, (2R,3R)-2-(2-Benzylcarbamoyl)-3-(N^2-(N-benzyloxycarbonylisoleucylglutamylthreonyl)-N^1-carboxymethylhydrazinocarbonyl)oxirane] are 18140 ± 4085 M⁻¹ s⁻¹ and 6475 ± 240 M⁻¹ s⁻¹.
`CCCCC(NC(=O)OC(C)(C)C)C(=O)NN(CCc1ccccc1)C(=O)C1OC1CCc1ccccc1` (stereo not drawn) [Boc-Nle-AHph-trans-EP-CH2CH2Ph, Boc-Nle-AHph-(trans)-EP-CH2CH2Ph]: the “kobs/[I] papain” value at papain amounted to 0.5 M⁻¹ s⁻¹.
With `CCOC(=O)[C@@H]1O[C@H]1C(=O)N(CC(C)C)NC(=O)[C@H](CC(C)C)NC(=O)[C@H](CC(C)C)NC(=O)OCc1ccccc1` [Cbz-Leu-Leu-ALeu-(2R, 3R)-EP-COOEt, (2R,3R)-3-(N^2-(N-Benzyloxycarbonylleucylleucyl)-N^1-isobutylhydrazinocarbonyl)oxirane-2-carboxylic Acid Ethyl Ester], on papain, the kinact/KI came to 20.6 M⁻¹ s⁻¹.
On to “(2R,3R)-2-(1-Amido-phenethylcarbamoyl)-3-(N^2-(N-benzyloxycarbonylaspartylglutamylvalyl)-N^1-carboxymethylhydrazinocarbonyl)oxirane [24l]”, for which the “k2 caspase-1” value at caspase-1 was 1040 ± 455 M⁻¹ s⁻¹. The “k2 caspase-3” value on caspase-3 came out at 470 ± 77 M⁻¹ s⁻¹.
